According to ChEMBL document CHEMBL3885861, “Open TG-GATES”:

Species on record: Rattus norvegicus
Test: Open TG-GATES - Regimen: Single
Format: toxicity, organism-based, Sprague-Dawley
Set-up: regimen Single, gender Male, age 6 weeks
Conditions: in vivo, po, 20 mg/kg, route gavage, dose level Middle; for APTT / Bas / Eos / Fbg / Hb / Ht / Lym / MCH / MCHC / MCV / Mono / Neu / PT / Plat / RBC / Ret / WBC: tissue Blood; for KIDNEY_L / KIDNEY_R / KIDNEY_TOTAL: tissue Kidney; for LIVER: tissue Liver; for A/G / ALP / ALT / AST / BUN / CRE / Ca / Cl / DBIL / GLC / IP / K / LDH / Na / PL / RALB / TBIL / TC / TG / TP / gamma-GTP: tissue Plasma

CC(C)NNC(=O)c1ccncc1 [IPRONIAZID]
TERMINAL_BW (3 h): 203.6 g | APTT (3 h): 21.7 s | Bas (3 h): 0% | Eos (3 h): 1% | Fbg (3 h): 321.4 mg/dL | Hb (3 h): 12.8 g/dL | Ht (3 h): 37.7% | Lym (3 h): 78.8% | MCH (3 h): 21.6 pg | MCHC (3 h): 34.1% | MCV (3 h): 63.4 fL | Mono (3 h): 2% | Neu (3 h): 17.8% | PT (3 h): 16.3 s | Plat (3 h): 114.7 x10_4/uL | RBC (3 h): 594.6 x10_4/ul | Ret (3 h): 8.2% | WBC (3 h): 62.7 x10_2/uL | KIDNEY_L (3 h): 1 g | KIDNEY_R (3 h): 1 g | KIDNEY_TOTAL (3 h): 1.9 g | LIVER (3 h): 9.6 g | A/G (3 h): 1.3 | ALP (3 h): 1741.8 IU/L | ALT (3 h): 35.4 IU/L | AST (3 h): 73.2 IU/L | BUN (3 h): 12.4 mg/dL | CRE (3 h): 0.2 mg/dL | Ca (3 h): 10.7 mg/dL | Cl (3 h): 107.2 meq/L | DBIL (3 h): 0.006 mg/dL | GLC (3 h): 182.8 mg/dL | IP (3 h): 8.8 mg/dL | K (3 h): 4 meq/L | LDH (3 h): 229.4 IU/L | Na (3 h): 142 meq/L | PL (3 h): 143.6 mg/dL | RALB (3 h): 3.2 g/dL | TBIL (3 h): 0.01 mg/dL | TC (3 h): 78.8 mg/dL | TG (3 h): 58.8 mg/dL | TP (3 h): 5.7 g/dL | gamma-GTP (3 h): 1.2 IU/L | TERMINAL_BW (6 h): 213.3 g | APTT (6 h): 23.3 s | Bas (6 h): 0% | Eos (6 h): 0.6% | Fbg (6 h): 324.6 mg/dL | Hb (6 h): 13.2 g/dL | Ht (6 h): 38.9% | Lym (6 h): 72.6% | MCH (6 h): 21.5 pg | MCHC (6 h): 34.1% | MCV (6 h): 63.1 fL | Mono (6 h): 2.6% | Neu (6 h): 23.6% | PT (6 h): 15.6 s | Plat (6 h): 118.4 x10_4/uL | RBC (6 h): 615.8 x10_4/ul | Ret (6 h): 8% | WBC (6 h): 79 x10_2/uL | KIDNEY_L (6 h): 1 g | KIDNEY_R (6 h): 1 g | KIDNEY_TOTAL (6 h): 1.9 g | LIVER (6 h): 9.4 g | A/G (6 h): 1.2 | ALP (6 h): 1382.2 IU/L | ALT (6 h): 34.4 IU/L | AST (6 h): 72.8 IU/L | BUN (6 h): 10.4 mg/dL | CRE (6 h): 0.1 mg/dL | Ca (6 h): 10.6 mg/dL | Cl (6 h): 107 meq/L | DBIL (6 h): 0.002 mg/dL | GLC (6 h): 178.8 mg/dL | IP (6 h): 10.3 mg/dL | K (6 h): 4.3 meq/L | LDH (6 h): 212.6 IU/L | Na (6 h): 142 meq/L | PL (6 h): 154.6 mg/dL | RALB (6 h): 2.9 g/dL | TBIL (6 h): 0.008 mg/dL | TC (6 h): 86.4 mg/dL | TG (6 h): 68.2 mg/dL | TP (6 h): 5.4 g/dL | gamma-GTP (6 h): 1.2 IU/L | TERMINAL_BW (9 h): 207.6 g | APTT (9 h): 22.8 s | Bas (9 h): 0% | Eos (9 h): 1% | Fbg (9 h): 306.4 mg/dL | Hb (9 h): 13.1 g/dL | Ht (9 h): 37.8% | Lym (9 h): 76.4% | MCH (9 h): 21.4 pg | MCHC (9 h): 34.6% | MCV (9 h): 61.8 fL | Mono (9 h): 2.6% | Neu (9 h): 19.4% | PT (9 h): 15.5 s | Plat (9 h): 116.3 x10_4/uL | RBC (9 h): 612.4 x10_4/ul | Ret (9 h): 7.7% | WBC (9 h): 87.5 x10_2/uL | KIDNEY_L (9 h): 1 g | KIDNEY_R (9 h): 1 g | KIDNEY_TOTAL (9 h): 2 g | LIVER (9 h): 8.6 g | A/G (9 h): 1.3 | ALP (9 h): 1268.2 IU/L | ALT (9 h): 35 IU/L | AST (9 h): 70.2 IU/L | BUN (9 h): 8.4 mg/dL | CRE (9 h): 0.2 mg/dL | Ca (9 h): 10.6 mg/dL | Cl (9 h): 106.6 meq/L | DBIL (9 h): 0.01 mg/dL | GLC (9 h): 176.2 mg/dL | IP (9 h): 10.2 mg/dL | K (9 h): 4.2 meq/L | LDH (9 h): 171 IU/L | Na (9 h): 141.4 meq/L | PL (9 h): 130.4 mg/dL | RALB (9 h): 3 g/dL | TBIL (9 h): 0.02 mg/dL | TC (9 h): 79.2 mg/dL | TG (9 h): 35.8 mg/dL | TP (9 h): 5.4 g/dL | gamma-GTP (9 h): 1 IU/L | TERMINAL_BW (24 h): 213.8 g | APTT (24 h): 21.6 s | Bas (24 h): 0% | Eos (24 h): 0.6% | Fbg (24 h): 318.8 mg/dL | Hb (24 h): 12.9 g/dL | Ht (24 h): 37.7% | Lym (24 h): 76.8% | MCH (24 h): 20.9 pg | MCHC (24 h): 34.2% | MCV (24 h): 60.9 fL | Mono (24 h): 2% | Neu (24 h): 19.6% | PT (24 h): 15.9 s | Plat (24 h): 125.4 x10_4/uL | RBC (24 h): 618.2 x10_4/ul | Ret (24 h): 7.7% | WBC (24 h): 81.3 x10_2/uL | KIDNEY_L (24 h): 1 g | KIDNEY_R (24 h): 1 g | KIDNEY_TOTAL (24 h): 1.9 g | LIVER (24 h): 10.1 g | A/G (24 h): 1.2 | ALP (24 h): 1498.8 IU/L | ALT (24 h): 38.2 IU/L | AST (24 h): 73 IU/L | BUN (24 h): 17.8 mg/dL | CRE (24 h): 0.2 mg/dL | Ca (24 h): 10.9 mg/dL | Cl (24 h): 105.4 meq/L | DBIL (24 h): 0.006 mg/dL | GLC (24 h): 177.6 mg/dL | IP (24 h): 8 mg/dL | K (24 h): 4.5 meq/L | LDH (24 h): 275.4 IU/L | Na (24 h): 141.6 meq/L | PL (24 h): 134.8 mg/dL | RALB (24 h): 3 g/dL | TBIL (24 h): 0.006 mg/dL | TC (24 h): 73 mg/dL | TG (24 h): 85.6 mg/dL | TP (24 h): 5.5 g/dL | gamma-GTP (24 h): 1.6 IU/L
